Test results taken from the supplement of paper PMC12137928.
Where a name gives a salt, the structure may show the parent alone.

System: HCT116
Conditions: 72 h
How it was run: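 HCT116 cells went into 1536-well plates at 250 per well. CellTiter-Glo luminescence was expressed relative to vehicle (0%) and positive control (-100%) and then pattern-corrected. Both IC50 and maximal efficacy were taken from four-parameter Hill fits.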

| IC50 cell viability (ICRF193 0 nM) [µM] | IC50 cell viability (ICRF193 200 nM) [µM] | Structure (SMILES) |
| --- | --- | --- |
| > 45.8 | > 45.8 | O=S(=O)(O)Oc1ccc(C(c2ccc(OS(=O)(=O)O)cc2)c2ccccn2)cc1 [Picosulfate sodium] |
| > 45.8 | > 45.8 | CC(=O)Oc1cc2c(s1)CCN(C(C(=O)C1CC1)c1ccccc1F)C2 (stereo not drawn) [Prasugrel] |
| > 45.8 | > 45.8 | CC1(C)S[C@@H]2[C@H](NC(=O)[C@H](NC(=O)N3CCN(S(C)(=O)=O)C3=O)c3ccccc3)C(=O)N2[C@H]1C(=O)O [Mezlocillin Sodium] |
| > 45.8 | > 45.8 | CC(C)C(=O)c1c(C(C)C)nn2ccccc12 [Ibudilast] |
| > 45.8 | > 45.8 | CC(C)[C@H]1C(=O)N[C@@H](CCCNC(=N)N)C(=O)NCC(=O)N[C@@H](CC(=O)O)C(=O)N[C@H](Cc2ccccc2)C(=O)N1C [Cilengitide] |
| > 45.8 | > 45.8 | CCN(CCCc1ccccc1)CCCc1ccccc1 [Alverine citrate] |
| > 45.8 | > 45.8 | O=Cc1ccccc1C=O [1,2-Benzenedicarboxaldehyde] |
| > 45.8 | > 45.8 | Cc1cc2c(s1)Nc1ccccc1N=C2N1CCN(C)CC1 [Olanzapine] |
| > 45.8 | > 45.8 | N[C@H](Cc1ccccc1)C(=O)O [D-Phenylalanine] |
| > 45.8 | > 45.8 | CC(C(O)c1ccc(O)cc1)N1CCC(Cc2ccccc2)CC1 (stereo not drawn) [Ifenprodil] |
| > 45.8 | > 45.8 | CCCCOC(=O)c1ccc(N)cc1 [Butyl 4-aminobenzoate] |
| > 45.8 | > 45.8 | CC1(C)S[C@@H]2[C@H](NC(=O)[C@H](NC(=O)N3CCNC3=O)c3ccccc3)C(=O)N2[C@H]1C(=O)O [AZLOCILLIN SODIUM] |
| > 45.8 | > 45.8 | CN1c2c([nH]c(N)nc2=O)NC[C@@H]1CNc1ccc(C(=O)N[C@@H](CCC(=O)O)C(=O)O)cc1 [Levomefolate calcium] |
| > 45.8 | > 45.8 | O=C(Cn1ccnc1[N+](=O)[O-])NCc1ccccc1 [Benznidazole] |
| > 45.8 | > 45.8 | CCCCc1nc(Cl)c(CO)n1Cc1ccc(-c2ccccc2-c2nnn[nH]2)cc1 [Losartan] |
| > 45.8 | > 45.8 | CC(C(=O)O)c1ccc(C(=O)c2cccs2)cc1 (stereo not drawn) [Suprofen] |
| > 45.8 | > 45.8 | CC(CC(C#N)(c1ccccc1)C(C)C)N(C)C (stereo not drawn) [Isoaminile] |
| > 45.8 | > 45.8 | CCCCCC[C@@H](O)C/C=C\CCCCCCCC(=O)O [Potassium ricinoleate] |
| > 45.8 | > 45.8 | N#Cc1ccc(Oc2ccc3c(c2)COB3O)cc1 [AN-2728] |

| IC50 cell viability (ICRF193 0 nM) [µM] | IC50 cell viability (ICRF193 200 nM) [µM] | Structure (SMILES) |
| --- | --- | --- |
| > 45.8 | > 45.8 | CC(C)NC[C@@H](O)COc1cccc2ccccc12 [Dexpropranolol] |
| > 45.8 | > 45.8 | CCN(CC)C(=O)c1cccc(C)c1 [DEET] |
| > 45.8 | > 45.8 | Cc1nccn1CC1CCc2c(c3ccccc3n2C)C1=O (stereo not drawn) [Ondansetron] |
| > 45.8 | > 45.8 | CCC(O)c1ccccc1 (stereo not drawn) [1-Phenyl-1-propanol] |
| > 45.8 | > 45.8 | CC1(C)S[C@@H]2[C@H](NC(=O)C(C(=O)Oc3ccc4c(c3)CCC4)c3ccccc3)C(=O)N2[C@H]1C(=O)O (stereo partly drawn) [Carbenicillin indanyl] |
| > 45.8 | > 45.8 | CC(O)COc1ccccc1 (stereo not drawn) [1-Phenoxy-2-propanol] |
| > 45.8 | > 45.8 | CCCCCCOc1ccccc1C(N)=O [Exalamide] |
| > 45.8 | > 45.8 | CC1=C(C(=O)O)N2C(=O)[C@@H](NC(=O)[C@H](N)c3ccccc3)[C@H]2SC1 [Cephalexin] |
| > 45.8 | > 45.8 | CCOc1ccccc1OCCN[C@H](C)Cc1ccc(OC)c(S(N)(=O)=O)c1 [Tamsulosin hydrochloride] |
| > 45.8 | > 45.8 | C[C@H](N)[C@H](O)c1cccc(O)c1 [Metaraminol bitartrate] |
| > 45.8 | > 45.8 | Nc1cc(-c2ccncc2)c[nH]c1=O [Amrinone] |
| > 45.8 | > 45.8 | Nc1nc2[nH]cc(CCc3ccc(C(=O)N[C@@H](CCC(=O)O)C(=O)O)cc3)c2c(=O)[nH]1 [Pemetrexed disodium heptahydrate] |
| > 45.8 | > 45.8 | Nc1ccc(S(=O)(=O)Nc2ccccn2)cc1 [Sulfapyridine] |
| > 45.8 | > 45.8 | CN1CCC(=C2c3ccccc3CC(=O)c3sccc32)CC1 [Ketotifen] |
| > 45.8 | > 45.8 | COc1cccc(N2CCN(C3=Nc4c(F)cccc4[C@H](CC(=O)O)N3c3cc(C(F)(F)F)ccc3OC)CC2)c1 [Letermovir] |
| > 45.8 | > 45.8 | O=C(O)CSc1nnc(Br)n1-c1ccc(C2CC2)c2ccccc12 [Lesinurad (sodium)] |
| > 45.8 | > 45.8 | CCN(CC)C(=O)Nc1ccc(OCC(O)CNC(C)(C)C)c(C(C)=O)c1 (stereo not drawn) [Celiprolol hydrochloride] |
| > 45.8 | > 45.8 | CSc1ccc(C(=O)c2[nH]c(=O)[nH]c2C)cc1 [Enoximone] |

More lines, now with the values behind:

| Structure (SMILES) | IC50 cell viability (ICRF193 0 nM) [µM] | IC50 cell viability (ICRF193 200 nM) [µM] |
| --- | --- | --- |
| O=c1[nH]cnc2c([C@@H]3N[C@H](CO)[C@@H](O)[C@H]3O)c[nH]c12 [Forodesine (hydrochloride)] | > 45.8 | > 45.8 |
| CC1(C)CCC(CN2CCN(c3ccc(C(=O)NS(=O)(=O)c4ccc(NCC5CCOCC5)c([N+](=O)[O-])c4)c(Oc4cnc5[nH]ccc5c4)c3)CC2)=C(c2ccc(Cl)cc2)C1 [Venetoclax (ABT-199)] | > 45.8 | > 45.8 |
| c1ccc2c(c1)sc1ccccc12 [Dibenzothiophene] | > 45.8 | > 45.8 |
| COC(F)(F)C(Cl)Cl [Methoxyflurane] | > 45.8 | > 45.8 |
| CN[C@@H]1[C@@H](O)[C@@H](O[C@@H]2[C@H](O)[C@H](O[C@H]3OC(CN)=CC[C@H]3N)[C@@H](N)C[C@H]2N)OC[C@]1(C)O [Pentisomicin] | > 45.8 | > 45.8 |
| CC(C[N+](C)(C)C)OC(N)=O (stereo not drawn) [Bethanechol chloride] | > 45.8 | > 45.8 |
| N#Cc1c(N(CC(=O)O)CC(=O)O)sc(C(=O)O)c1CC(=O)O [Strontium Ranelate] | > 45.8 | > 45.8 |
| Cc1ncc(COP(=O)(O)O)c(CN)c1O [Pyridoxamine phosphate] | > 45.8 | > 45.8 |
| O=C(O)P(=O)(O)O [Foscarnet trisodium] | > 45.8 | > 45.8 |
| Nc1nc(=O)[nH]cc1F [Flucytosine] | > 45.8 | > 45.8 |
| CCCC[N+]1(C)[C@@H]2C[C@@H](OC(=O)[C@H](CO)c3ccccc3)C[C@H]1[C@@H]1O[C@@H]12 (stereo partly drawn) [Butylscopolamine bromide] | > 45.8 | > 45.8 |
| CCC(=O)[C@@]1(C)[C@H](C)C[C@H]2[C@@H]3CCC4=CC(=O)C=C[C@]4(C)[C@H]3[C@@H](O)C[C@@]21C [Rimexolone] | > 45.8 | > 45.8 |
| CC1(C)[C@@H](OC(=O)CCC(=O)O)CC[C@]2(C)[C@H]3C(=O)C=C4[C@@H]5C[C@@](C)(C(=O)O)CC[C@]5(C)CC[C@@]4(C)[C@]3(C)CC[C@@H]12 [Carbenoxolone sodium] | > 45.8 | > 45.8 |
| COc1cc2c3cc1Oc1cc(ccc1O)C[C@@H]1c4c(cc(OC)c(O)c4Oc4ccc(cc4)C[C@@H]3N(C)CC2)CC[N+]1(C)C [(+)-Tubocurarine chloride hydrochloride] | > 45.8 | > 45.8 |
| N[C@H](CC(=O)O)C(=O)O [D-Aspartic acid] | > 45.8 | > 45.8 |
| NC(=O)c1cnccn1 [Pyrazinamide] | > 45.8 | > 45.8 |
| CC(=O)CCCCn1c(=O)c2c(ncn2C)n(C)c1=O [Pentoxifylline] | > 45.8 | > 45.8 |
| CC(C)CCC[C@@H](C)[C@H]1CC[C@H]2[C@@H]3CC=C4C[C@@H](O)CC[C@]4(C)[C@H]3CC[C@]12C [Cholesterol] | > 45.8 | > 45.8 |
| O=C1OC(c2ccc(O)c(S(=O)(=O)O)c2)(c2ccc(O)c(S(=O)(=O)O)c2)c2c(Br)c(Br)c(Br)c(Br)c21 [Sulfobromophthalein] | > 45.8 | > 45.8 |
| CS(=O)(=O)OCCCCOS(C)(=O)=O [Busulfan] | > 45.8 | > 45.8 |
| O=C1CN2Cc3c(ccc(Cl)c3Cl)N=C2N1 [Anagrelide hydrochloride] | > 45.8 | > 45.8 |
| CC(CC=O)CCCC(C)(C)O (stereo not drawn) [Hydroxycitronellal] | > 45.8 | > 45.8 |
| CCCN[C@H]1CCc2nc(N)sc2C1 [Pramipexole hydrochloride] | > 45.8 | > 45.8 |
| CC1(C)O[C@@H]2C[C@H]3[C@@H]4C[C@H](F)C5=CC(=O)CC[C@]5(C)[C@H]4[C@@H](O)C[C@]3(C)[C@]2(C(=O)CO)O1 [Flurandrenolide] | > 45.8 | > 45.8 |
| NC(=O)[C@@H]1C[C@]2(NC(=O)NC2=O)c2cc(F)ccc2O1 [Fidarestat] | > 45.8 | > 45.8 |
| COC(=O)c1cncn1C(C)c1ccccc1 (stereo not drawn) [Metomidate hydrochloride] | > 45.8 | > 45.8 |
| Oc1ccc(C2CNCCc3c2cc(O)c(O)c3Cl)cc1 (stereo not drawn) [Fenoldopam] | > 45.8 | > 45.8 |
